In PMC7251123, “CX-5461 activates the DNA damage response and demonstrates therapeutic efficacy in high-grade serous ovarian cancer” (Nature Communications, 2020):
Several values for one entry are separate records, joined by “and”; a condition that tells them apart may be missing. Identical values can stand only once. Like-named read-outs stand apart in the source and are kept apart here.

Legend:
Pol I transcription = assay: Inhibition of Pol I transcription: 47S precursor rRNA levels by quantitative RT-PCR after 1 h treatment; format: cell-based, human; conditions: for 47S precursor rRNA level, fold change relative to vehicle-treated controls: individual replicates; for IC50: Homo sapiens
Protocol: Fig. 1 Sensitivity of ovarian cancer (OVCA) cell lines to CX-5461. a CX-5461 doses that induce 50% growth inhibition (GI50) at 48 hours. Error bars represent mean ± standard deviation (SD). Asterisks denote mutated TP53 status. […] Information regarding each cell lines source, mean G1_50 values, SD and N values are outlined in Supplementary Table 1. […] Statistical analysis was performed using a two-sided Mann–Whitney test. Error bars represent mean ± SD. c Baseline rDNA transcription rates of OVCA cell lines (listed in (d)), as determined by quantitative real-time PCR (qRT-PCR) analysis using primers specific to the external transcribed spacer 5’ETS (+413–521 bp) relative to the transcription start site (TSS). Expression levels in each cell line were normalised to Vimentin mRNA and expressed as fold change relative to TOV112D cells. Each dot represents the mean value of n = 3 biologically independent experiments per cell line (Individual data points are provided in Supplementary Data 4). Error bars represent mean ± SD. Statistical analysis was performed using a two-tailed unpaired t test. d Dose-response curves of 47S precursor rRNA levels measured by quantitative RT-PCR. OVCA cell lines were treated with vehicle or increasing drug concentrations of CX-5461 (0.001, 0.01, 0.03, 0.1, 0.3, 1 and 3 μM) for 1 h before RNA was harvested. Expression levels were normalised to Vimentin mRNA and expressed as fold change relative to vehicle-treated controls. Shown are the mean of n = 3 independent biological experiments for each cell line. (Individual data points are provided in Supplementary Data 4). e The mean inhibitory concentration values that led to 50% transcription inhibition (IC50) (of n = 3 biologically independent experiments for each cell line) from D are presented (Individual data points are provided in Supplementary Data 4). Error bars represent mean ± SD. Statistical analysis was performed using a two-sided Mann–Whitney test.
For Reverse-transcription qPCR analysis, cells were lysed, RNA extracted, and first-strand cDNA synthesized using random hexamer primers (Promega, C1181) and Superscript III (Invitrogen,18080044). Quantitative PCR (qPCR) was performed in duplicate using the FAST SYBR Green dye (Applied Biosystems, 4385610) on the StepOnePlus real-time PCR system (Applied Biosystems). Primer sequences are listed in (Supplementary Table 3).
Dose-response curves of 4 7S precursor rRNA levels (Figure 1D) measured by quantitative RT-PCR after 1h treatment. Expression levels
were normalised to Vimentin mRNA and expressed as fold change relative to vehicle-treated controls.
IC50 doses (Figure 1E) were determined from dose response curves in Figure 1D
using GraphPad Prism version 8.

[1] = parameters: method as in PMID 31092402; conditions: Phase I CX-5461 dose escalation study ref 16; cited from earlier work
OVCAR3 = assay: Cell proliferation dose response (IncuCyte ZOOM), 48 h; format: cell-based; conditions: Homo sapiens, OVCAR-3; OVCAR3, 48 h; read-out: GI50 (concentration inducing 50% reduction in cell proliferation)
Protocol: (§1) The in vitro effects of CX-5461 on human OVCA cells were evaluated using a panel of 32 established human OVCA cell lines. These cell lines were selected to be representative of a range of histologic OVCA subtypes (Supplementary Table 1). Increasing concentrations (1 nM–10 μM) of CX-5461 were used to assess the concentration of drug that induced a 50% reduction in cell proliferation (GI50) at 48 hours (h). […] There was no statistically significant correlation between TP53 mutation status and sensitivity to CX-5461 (Supplementary Table 1, Fig. 1b). The efficacy of growth inhibition by CX-5461 correlated with a higher rate of basal rDNA transcription in the sensitive compared with the resistant OVCA cell lines (Fig. 1c).
(§2) Fig. 1 Sensitivity of ovarian cancer (OVCA) cell lines to CX-5461. a CX-5461 doses that induce 50% growth inhibition (GI50) at 48 hours. Error bars represent mean ± standard deviation (SD). […]
(§3) For assessing OVCA cells’ sensitivity to CX-5461, dose response curves were generated for each cell line by plating cells in 96-well plates, culturing them for 24 hours and then treating them with either vehicle or increasing concentrations of drug (0, 0.001, 0.003, 0.01, 0.03, 0.1, 0.3, 1, 3, 10 and 30 μM CX-5461) for 48 h. Cell number was assessed using the IncuCyte ZOOM imaging system (Essen BioScience). […] During this time the degree of confluency was measured every 24 h. […]

OV90 = assay: as above; format: cell-based; conditions: Homo sapiens, OV-90; OV90, 48 h; read-out: GI50 (concentration inducing 50% reduction in cell proliferation)
Protocol: as §1, §2, §3

IC50 (Pol I transcription; 1 h, 2008, 1 h, mean n=3, read-out: IC50 Pol I transcription): 48.8 nM
IC50 (Pol I transcription; 1 h, ES2, 1 h, mean n=3, read-out: IC50 Pol I transcription): 55.1 nM
IC50 (Pol I transcription; 1 h, JHOC9, 1 h, mean n=3, read-out: IC50 Pol I transcription): 268 nM
IC50 (Pol I transcription; 1 h, JHOM1, 1 h, mean n=3, read-out: IC50 Pol I transcription): 202 nM
IC50 (Pol I transcription; 1 h, KURAMOCHI, 1 h, mean n=3, read-out: IC50 Pol I transcription): 47.8 nM
IC50 (Pol I transcription; 1 h, RMG2, 1 h, mean n=3, read-out: IC50 Pol I transcription): 114 nM
IC50 (Pol I transcription; 1 h, sensitive and resistant OVCA cell lines, 1 h treatment, read-out: IC50 (concentration inhibiting Pol I transcription by 50%), range over cell lines): 38 to 285 nM
IC50 (Pol I transcription; A2780, 1 h, mean n=3, read-out: IC50 Pol I transcription): 63.3 nM
IC50 (Pol I transcription; COLO 704, 1 h, COLO704, 1 h, mean n=3, read-out: IC50 Pol I transcription): 96.8 nM
IC50 (Pol I transcription; EFO-21, 1 h, EFO21, 1 h, mean n=3, read-out: IC50 Pol I transcription): 65.4 nM
IC50 (Pol I transcription; IGROV-1, 1 h, IGROV1, 1 h, mean n=3, read-out: IC50 Pol I transcription): 38.4 nM
IC50 (Pol I transcription; OV-90, 1 h, OV90, 1 h, mean n=3, read-out: IC50 Pol I transcription): 117 nM
IC50 (Pol I transcription; OVCAR-3, 1 h, OVCAR3, 1 h, mean n=3, read-out: IC50 Pol I transcription): 67.4 nM
IC50 (Pol I transcription; OVCAR-4, 1 h, OVCAR4, 1 h, mean n=3, read-out: IC50 Pol I transcription): 88.5 nM
IC50 (Pol I transcription; OVCAR-8, 1 h, OVCAR8, 1 h, mean n=3, read-out: IC50 Pol I transcription): 97.6 nM
IC50 (Pol I transcription; TOV112D, 1 h, TOV112D, 1 h, mean n=3, read-out: IC50 Pol I transcription): 134 nM
GI50 (OVCAR3): 12 nM
SMILES: Cc1cnc(CNC(=O)c2c(=O)c3ccc(N4CCCN(C)CC4)nc3n3c2sc2ccccc23)cn1 [CX-5461]
47S precursor rRNA level, fold change relative to vehicle-treated controls (Pol I transcription; A2780, CX-5461 0.00000001 M, 1 h): 1.227 and 1.156 and 0.5552
47S precursor rRNA level, fold change relative to vehicle-treated controls (Pol I transcription; A2780, CX-5461 0.00000003 M, 1 h): 1.079 and 0.6056 and 0.5354
47S precursor rRNA level, fold change relative to vehicle-treated controls (Pol I transcription; A2780, CX-5461 0.0000001 M, 1 h): 0.7784 and 0.3051 and 0.7248
47S precursor rRNA level, fold change relative to vehicle-treated controls (Pol I transcription; A2780, CX-5461 0.0000003 M, 1 h): 0.4946 and 0.2868 and 0.2848
47S precursor rRNA level, fold change relative to vehicle-treated controls (Pol I transcription; A2780, CX-5461 0.000001 M, 1 h): 0.1884 and 0.1928 and 0.2616
47S precursor rRNA level, fold change relative to vehicle-treated controls (Pol I transcription; A2780, CX-5461 0.000003 M, 1 h): 0.1746 and 0.05092 and 0.1316
47S precursor rRNA level, fold change relative to vehicle-treated controls (Pol I transcription; A2780, CX-5461 1E-09 M, 1 h): 1.211 and 0.7921 and 0.6449
47S precursor rRNA level, fold change relative to vehicle-treated controls (Pol I transcription; EFO21, CX-5461 0.00000001 M, 1 h): 1.115 and 1.095 and 1.792
47S precursor rRNA level, fold change relative to vehicle-treated controls (Pol I transcription; EFO21, CX-5461 0.00000003 M, 1 h): 1.11 and 1.692 and 0.987
47S precursor rRNA level, fold change relative to vehicle-treated controls (Pol I transcription; EFO21, CX-5461 0.0000001 M, 1 h): 0.7444 and 0.9773 and 0.668
47S precursor rRNA level, fold change relative to vehicle-treated controls (Pol I transcription; EFO21, CX-5461 0.0000003 M, 1 h): 0.2419 and 0.3103 and 0.414
47S precursor rRNA level, fold change relative to vehicle-treated controls (Pol I transcription; EFO21, CX-5461 0.000001 M, 1 h): 0.2002 and 0.2399 and 0.3839
47S precursor rRNA level, fold change relative to vehicle-treated controls (Pol I transcription; EFO21, CX-5461 0.000003 M, 1 h): 0.1871 and 0.2673 and 0.0006867
47S precursor rRNA level, fold change relative to vehicle-treated controls (Pol I transcription; EFO21, CX-5461 1E-09 M, 1 h): 1.492 and 1.313 and 0.8129
47S precursor rRNA level, fold change relative to vehicle-treated controls (Pol I transcription; JHOC9, CX-5461 0.00000001 M, 1 h): 0.9254 and 0.9049 and 1.002
47S precursor rRNA level, fold change relative to vehicle-treated controls (Pol I transcription; JHOC9, CX-5461 0.00000003 M, 1 h): 1.057 and 1.034 and 0.8359
47S precursor rRNA level, fold change relative to vehicle-treated controls (Pol I transcription; JHOC9, CX-5461 0.0000001 M, 1 h): 0.8119 and 0.7939 and 0.6945
47S precursor rRNA level, fold change relative to vehicle-treated controls (Pol I transcription; JHOC9, CX-5461 0.0000003 M, 1 h): 0.5763 and 0.5636 and 0.384
47S precursor rRNA level, fold change relative to vehicle-treated controls (Pol I transcription; JHOC9, CX-5461 0.000001 M, 1 h): 0.3587 and 0.3508 and 0.2158
47S precursor rRNA level, fold change relative to vehicle-treated controls (Pol I transcription; JHOC9, CX-5461 0.000003 M, 1 h): 0.08402 and 0.08216 and 0.06114
47S precursor rRNA level, fold change relative to vehicle-treated controls (Pol I transcription; JHOC9, CX-5461 1E-09 M, 1 h): 1.047 and 1.024 and 0.8051
47S precursor rRNA level, fold change relative to vehicle-treated controls (Pol I transcription; OV90, CX-5461 1E-09 M, 1 h): 1.356
47S precursor rRNA level, fold change relative to vehicle-treated controls (Pol I transcription; RMG2, CX-5461 0.00000001 M, 1 h): 1.019 and 0.9292 and 0.7914
47S precursor rRNA level, fold change relative to vehicle-treated controls (Pol I transcription; RMG2, CX-5461 0.00000003 M, 1 h): 0.8882 and 0.4552 and 0.4564
47S precursor rRNA level, fold change relative to vehicle-treated controls (Pol I transcription; RMG2, CX-5461 0.0000001 M, 1 h): 0.8694 and 0.414 and 0.3672
47S precursor rRNA level, fold change relative to vehicle-treated controls (Pol I transcription; RMG2, CX-5461 0.0000003 M, 1 h): 0.5159 and 0.1241 and 0.09886
47S precursor rRNA level, fold change relative to vehicle-treated controls (Pol I transcription; RMG2, CX-5461 0.000001 M, 1 h): 0.2164 and 0.1124 and 0.1026
47S precursor rRNA level, fold change relative to vehicle-treated controls (Pol I transcription; RMG2, CX-5461 0.000003 M, 1 h): 0.06697 and 0.02897 and 0.03341
47S precursor rRNA level, fold change relative to vehicle-treated controls (Pol I transcription; RMG2, CX-5461 1E-09 M, 1 h): 0.7818 and 0.717 and 0.6208
47S precursor rRNA level, fold change relative to vehicle-treated controls (Pol I transcription; TOV112D, CX-5461 0.00000001 M, 1 h): 1.178 and 0.9492
47S precursor rRNA level, fold change relative to vehicle-treated controls (Pol I transcription; TOV112D, CX-5461 0.00000003 M, 1 h): 0.9271
47S precursor rRNA level, fold change relative to vehicle-treated controls (Pol I transcription; TOV112D, CX-5461 0.0000001 M, 1 h): 1.01
47S precursor rRNA level, fold change relative to vehicle-treated controls (Pol I transcription; TOV112D, CX-5461 0.0000003 M, 1 h): 0.388 and 0.509
47S precursor rRNA level, fold change relative to vehicle-treated controls (Pol I transcription; TOV112D, CX-5461 0.000001 M, 1 h): 0.1661 and 0.2245 and 0.333
47S precursor rRNA level, fold change relative to vehicle-treated controls (Pol I transcription; TOV112D, CX-5461 0.000003 M, 1 h): 0.1644 and 0.0787 and 0.1952
47S precursor rRNA level, fold change relative to vehicle-treated controls (Pol I transcription; TOV112D, CX-5461 1E-09 M, 1 h): 1.079 and 1.012 and 1.217
plasma concentrations range, lower end [1]: 584.1 nM
GI50 (OV90): 5170 nM
